This experiment deals with Protein-arginine deiminase type-2 (Homo sapiens, UniProt Q9Y2J8). The experiment is described as follows: Inhibition of N-terminal 6His/FLAG-tagged recombinant human PAD2 (1 to 665 residues) expressed in baculovirus infected sf9 cells using N-a-benzoyl-L-arginine ethyl ester as substrate preincubated for 30 mins followed by substrate addition after 90 mins by DTT-based fluorescence assay.

Molecules are shown by their SMILES.

Protein-arginine deiminase type-2, sequence (Q9Y2J8 whole entry, the tested form may be a part): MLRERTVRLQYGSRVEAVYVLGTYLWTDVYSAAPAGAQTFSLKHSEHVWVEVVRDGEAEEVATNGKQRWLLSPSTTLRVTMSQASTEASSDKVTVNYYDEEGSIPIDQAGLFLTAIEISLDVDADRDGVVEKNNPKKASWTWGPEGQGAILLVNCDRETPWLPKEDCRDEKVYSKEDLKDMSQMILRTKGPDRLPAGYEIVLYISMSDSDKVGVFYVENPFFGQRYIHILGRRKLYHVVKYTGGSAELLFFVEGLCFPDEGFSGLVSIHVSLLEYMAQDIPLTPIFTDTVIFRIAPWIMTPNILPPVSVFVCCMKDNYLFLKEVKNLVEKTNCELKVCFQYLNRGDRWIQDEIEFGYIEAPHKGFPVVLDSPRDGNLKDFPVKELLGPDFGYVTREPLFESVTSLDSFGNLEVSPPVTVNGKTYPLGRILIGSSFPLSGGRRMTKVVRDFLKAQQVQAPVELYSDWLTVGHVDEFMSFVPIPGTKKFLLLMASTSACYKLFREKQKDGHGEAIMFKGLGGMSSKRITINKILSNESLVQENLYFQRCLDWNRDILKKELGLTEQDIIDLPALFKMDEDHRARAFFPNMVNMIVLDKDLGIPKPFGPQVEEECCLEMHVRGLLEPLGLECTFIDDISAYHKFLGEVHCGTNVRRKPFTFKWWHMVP

Consider `COc1cc(C(=O)N2CC[C@@H](O)[C@@H](N)C2)cc2nc(-c3cc4ccccc4n3CC(F)(F)F)n(C)c12`, for which the IC50 (as a rule, the concentration at which inhibition is half-maximal) was 10 to 79.4 µM.
In the case of `COc1cc(C(=O)N2CCC[C@@H](N)C2)cc2nc(-c3cc4ccccc4n3CC(F)(F)F)n(C)c12`, the half-maximal inhibitory concentration (IC50) is 10 to 79.4 µM.
Turning to `COc1cc(C(=O)N2CCC[C@@H](N)C2)cc2nc(-c3cc4ccccc4n3CC3CC3)n(C)c12`, the IC50 was 10 to 79.4 µM.
Under `Cn1c(-c2cc3ccccc3n2CC2CC2)nc2cc(C(=O)N3CCC[C@@H](N)C3)ccc21` stands 10 to 79.4 µM.

The values are drawn from ChEMBL document CHEMBL3868639, “Great Therapeutic Potential of Peptidylarginine Deiminase 4 (PAD4) Inhibitors: Treatment of Rheumatoid Arthritis, Epigenetic Tools, Regulation of Pluripotency in Stem Cells, and More” (ACS Med Chem Lett, 2017).
